PubChem BioAssay AID330 (DTP/NCI, 2004)
“And” between values parts separate entries of the source, which are not always exact repeats. Identical values can stand only once. Toxic doses and inconclusive results are not listed. Rule for the calls: active = survival T/C of 150% or more; inactive = T/C below 125% in these data.

Test system: P388 leukemia ip, CD2F1 mice, survival T/C
Assay: NCI In Vivo Anticancer Drug Screen. Data for tumor model P388 Leukemia (intraperitoneal) in CD2F1 (CDF1) mice
Conditions: endpoint: median survival time, higher = longer survival
In short: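 Mice carrying the transplanted tumor received test compound or vehicle. Survival was recorded in each group, and the value is the treated-group measurement divided by that of the vehicle-treated control group.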

[1] = dose: 50.0 mg/kg/injection, schedule: Q01DX005 (ip), vehicle: Klucel (hydroxypropylcellulose) (HPC)
[2] = dose: 100.0 mg/kg/injection, schedule: Q01DX005 (ip), vehicle: Klucel (hydroxypropylcellulose) (HPC)
[3] = dose: 200.0 mg/kg/injection, schedule: Q01DX005 (ip), vehicle: Klucel (hydroxypropylcellulose) (HPC)
[4] = dose: 25.0 mg/kg/injection, schedule: Q01DX009 (ip), vehicle: Klucel (hydroxypropylcellulose) (HPC)
[5] = dose: 50.0 mg/kg/injection, schedule: Q01DX009 (ip), vehicle: Klucel (hydroxypropylcellulose) (HPC)
[6] = dose: 100.0 mg/kg/injection, schedule: Q01DX009 (ip), vehicle: Klucel (hydroxypropylcellulose) (HPC)
[7] = dose: 60.0 mg/kg/injection, schedule: Q01DX005 (ip), vehicle: saline with Tween-80
[8] = dose: 120.0 mg/kg/injection, schedule: Q01DX005 (ip), vehicle: saline with Tween-80
[9] = dose: 50.0 mg/kg/injection, schedule: Q01DX009 (ip), vehicle: saline with Tween-80
[10] = dose: 100.0 mg/kg/injection, schedule: Q01DX009 (ip), vehicle: saline with Tween-80
[11] = dose: 200.0 mg/kg/injection, schedule: Q01DX009 (ip), vehicle: saline with Tween-80

Measured: T/C

CN1C(=O)[C@@H]2OCCOCCO[C@H]3C(=O)N(C)C(=O)[C@@H]3OCCOCCO[C@H]2C1=O
inactive: dose: 25.0 mg/kg/injection, schedule: Q01DX005 (ip), vehicle: Klucel (hydroxypropylcellulose) (HPC) 112 % of control | [1] 106 % of control | [2] 87 % of control | [3] 96 % of control

CCCCN(CCCC)C(Cl)=Nc1ccccc1
inactive: [4] 119 % of control | [5] 120 % of control | [6] 112 % of control

COc1cc(C2c3cc4c(cc3CC3COC(=O)N32)OCO4)cc(OC)c1OC (centres undefined)
inactive: dose: 3.75 mg/kg/injection, schedule: Q01DX005 (ip), vehicle: Klucel (hydroxypropylcellulose) (HPC) 98 % of control and 92 % of control | dose: 7.5 mg/kg/injection, schedule: Q01DX005 (ip), vehicle: Klucel (hydroxypropylcellulose) (HPC) 88 % of control and 91 % of control and 92 % of control | dose: 15.0 mg/kg/injection, schedule: Q01DX005 (ip), vehicle: Klucel (hydroxypropylcellulose) (HPC) 92 % of control (2×) and 97 % of control

CC(CO)/[N+]([O-])=N/O (centres undefined)
inactive: dose: 6.0 mg/kg/injection, schedule: Q01DX005 (ip), vehicle: Klucel (hydroxypropylcellulose) (HPC) 95 % of control | dose: 12.0 mg/kg/injection, schedule: Q01DX005 (ip), vehicle: Klucel (hydroxypropylcellulose) (HPC) 94 % of control | dose: 24.0 mg/kg/injection, schedule: Q01DX005 (ip), vehicle: Klucel (hydroxypropylcellulose) (HPC) 100 % of control | dose: 48.0 mg/kg/injection, schedule: Q01DX005 (ip), vehicle: Klucel (hydroxypropylcellulose) (HPC) 100 % of control

CC(=O)Nc1[nH]ncc1C#N
inactive: [7] 98 % of control | [8] 107 % of control | dose: 240.0 mg/kg/injection, schedule: Q01DX005 (ip), vehicle: saline with Tween-80 101 % of control

CN1CCOC(c2ccccc2)c2ccsc2CC1 (centres undefined)
inactive: [7] 98 % of control | [8] 93 % of control

CC1=C(O)NC(CC(=O)C(O)CO)=CN1 (centres undefined)
inactive: dose: 25.0 mg/kg/injection, schedule: Q01DX009 (ip), vehicle: water 101 % of control | dose: 50.0 mg/kg/injection, schedule: Q01DX009 (ip), vehicle: water 100 % of control | dose: 100.0 mg/kg/injection, schedule: Q01DX009 (ip), vehicle: water 95 % of control | dose: 200.0 mg/kg/injection, schedule: Q01DX009 (ip), vehicle: water 95 % of control | dose: 400.0 mg/kg/injection, schedule: Q01DX009 (ip), vehicle: water 111 % of control | dose: 800.0 mg/kg/injection, schedule: Q01DX009 (ip), vehicle: water 117 % of control

CCOc1ccc2nc(N=NC(C(C)=O)C(C)=O)sc2c1
inactive: dose: 50.0 mg/kg/injection, schedule: Q01DX009 (ip), vehicle: saline 90 % of control | dose: 100.0 mg/kg/injection, schedule: Q01DX009 (ip), vehicle: saline 92 % of control | dose: 200.0 mg/kg/injection, schedule: Q01DX009 (ip), vehicle: saline 92 % of control

CN1C(=O)/C(=C2\SC(=O)N(CN3CCCCC3)C2=O)c2ccccc21
inactive: [1] 92 % of control | [2] 100 % of control | [3] 99 % of control

CC1=CC(c2c(O)cc(O)c(C(=O)CCc3ccccc3)c2O)C(C(C)C)CC1 (centres undefined)
inactive: dose: 3.75 mg/kg/injection, schedule: Q01DX005 (ip), vehicle: Klucel + Tween-80 94 % of control | dose: 7.5 mg/kg/injection, schedule: Q01DX005 (ip), vehicle: Klucel + Tween-80 103 % of control | dose: 15.0 mg/kg/injection, schedule: Q01DX005 (ip), vehicle: Klucel + Tween-80 97 % of control | dose: 30.0 mg/kg/injection, schedule: Q01DX005 (ip), vehicle: Klucel + Tween-80 98 % of control

N/C(=N\OC1(c2ccccc2)OC(=O)C(=O)/C1=C(/O)c1ccccc1)c1ccccc1 (centres undefined)
inactive: [7] 102 % of control | [8] 100 % of control

CCn1c(=O)c2cn[nH]c2n(CC)c1=O
inactive: [5] 108 % of control | [6] 104 % of control

O=c1c(N=Nc2ccc(S(=O)(=O)Nc3nccs3)cc2)c(O)n(-c2ccccc2)n1-c1ccccc1
inactive: dose: 12.5 mg/kg/injection, schedule: Q01DX009 (ip), vehicle: Klucel (hydroxypropylcellulose) (HPC) 88 % of control | [4] 87 % of control and 93 % of control | [5] 90 % of control and 91 % of control and 92 % of control

Nc1ccc(C2NC(=O)Cc3c2ccc2ccccc32)cc1 (centres undefined)
inactive: dose: 60.0 mg/kg/injection, schedule: Q01DX005 (ip), vehicle: Klucel (hydroxypropylcellulose) (HPC) 95 % of control | dose: 120.0 mg/kg/injection, schedule: Q01DX005 (ip), vehicle: Klucel (hydroxypropylcellulose) (HPC) 94 % of control | dose: 240.0 mg/kg/injection, schedule: Q01DX005 (ip), vehicle: Klucel (hydroxypropylcellulose) (HPC) 95 % of control

O=C(CNC(=O)c1ccccc1)N/N=C/c1ccc2c(c1)OCO2
inactive: dose: 25.0 mg/kg/injection, schedule: Q01DX009 (ip), vehicle: saline with Tween-80 100 % of control | dose: 400.0 mg/kg/injection, schedule: Q01DX009 (ip), vehicle: saline with Tween-80 96 % of control

N#CC1CPCCC1N (centres undefined)
inactive: [9] 102 % of control | [10] 106 % of control | [11] 114 % of control

COCCC(=O)SCc1ccccc1
inactive: dose: 50.0 mg/kg/injection, schedule: Q01DX005 (ip), vehicle: saline with Tween-80 103 % of control | dose: 100.0 mg/kg/injection, schedule: Q01DX005 (ip), vehicle: saline with Tween-80 96 % of control | dose: 200.0 mg/kg/injection, schedule: Q01DX005 (ip), vehicle: saline with Tween-80 107 % of control

N#C/C(=C1/NC(=O)c2ccccc21)c1nc2ccccc2s1
inactive: [9] 89 % of control | [10] 90 % of control | [11] 96 % of control

CCN(CCC(=O)OC)Cc1ccnc2ccccc12
inactive: dose: 50.0 mg/kg/injection, schedule: Q01DX005 (ip), vehicle: saline 103 % of control | dose: 100.0 mg/kg/injection, schedule: Q01DX005 (ip), vehicle: saline 113 % of control | dose: 200.0 mg/kg/injection, schedule: Q01DX005 (ip), vehicle: saline 106 % of control

C[N+](C)(C)c1ccc2c(c1)CCC/C2=N\N
inactive: dose: 1.56 mg/kg/injection, schedule: Q04DX003 (ip), vehicle: saline 100 % of control | dose: 3.13 mg/kg/injection, schedule: Q04DX003 (ip), vehicle: saline 100 % of control | dose: 6.25 mg/kg/injection, schedule: Q04DX003 (ip), vehicle: saline 97 % of control

CC(C)Cc1c(O)c(N=Nc2ccc(C(=O)O)c(O)c2)c2ccccc2c1O
inactive: dose: 100.0 mg/kg/injection, schedule: Q04DX002 (ip), vehicle: distilled water + alcohol 99 % of control | dose: 200.0 mg/kg/injection, schedule: Q04DX002 (ip), vehicle: distilled water + alcohol 97 % of control
